Structures are written as SMILES.

One assay deals with C57BL/6 mice. In words: Reduction of serum iron by Fpn127 in C57BL/6 mice. Format: in vivo, mouse. Conditions: naïve C57BL/6 mice; for Serum iron: 4 h post dosing; for Serum iron (hypoferremia sustained): 8 h post dosing. As to the method:
FIG. 2: Serum iron levels in naïve C57BL/6 mice treated with Fpn127 at 120 mg/kg or 300 mg/kg for 4 h or 8 h. Vehicle was 0.5% methylcellulose in water
To determine the dose of Fpn127 that causes sustained serum iron reduction, C57BL/6 mice received either 120 mg/kg or 300 mg/kg of Fpn127 po for 4 h or 8 h.

In a further assay the test system is guinea pigs. The following applies: cited from earlier work.
[1] abbreviates: i.v. dosing after RBC transfusion.

For `O=C(NCc1ncccc1F)c1coc(CCNCCc2nc3ccccc3[nH]2)n1` [Fpn127], in the assay on C57BL/6 mice (120 mg/kg po), the Serum iron result was “reduced significantly” and the “Serum iron (hypoferremia sustained)” value is given as “only the dose of 300 mg/kg sustained the hypoferremia”. In addition, in the assay on C57BL/6 mice (300 mg/kg po), the Serum iron result was “reduced significantly” and the “Serum iron (hypoferremia sustained)” value was “sustained the hypoferremia”.
`O=C(NCc1ncccc1F)c1csc(CCNCc2nc3ccccc3[nH]2)n1` [VIT-2653]: in the assay with guinea pigs (setting [1]), the “Hb levels following exchange transfusion” value was “significantly improved”, the “NTBI levels following exchange transfusion” value is recorded as “significantly improved” and the “Total iron in kidneys following transfusion” value is listed as “can be reduced”. For the same molecule, the “Occurrence of changes in plasma creatinine >0.3 mg/dL (indicator of early AKI)” value in the assay on guinea pigs (i.v. dosing, transfused animals) is on record as “significantly reduced”. In addition, the Cellular injury result in the assay with guinea pigs (i.v. immediately after acute red blood cell transfusions) was “attenuation of cellular injury”.

These data come from patent publication US20220323416A1, “Ferroportin-Inhibitors For The Use In The Prevention And Treatment Of Kidney Injuries” (Vifor (International) AG, priority 2019, published 2022).
